Assay results from patent US7335682B2, “Pharmaceutical compositions and methods for treating immune-response associated diseases of the surface and the anterior segment of the eye” (The Zhongshan Opthalmic Center, priority 2000, dated 2008).
Like-named read-outs stand apart in the source and are kept apart here.

Experiments:
[1] = system: immune rejection of allotypic cornea transplantation; settings: rat; for effect on immune rejection in allotypic cornea transplantation: superficial (ocular surface) administration
[2] = system: immune rejection in high risk cornea transplantation; experiment: Clinical study of suppression of immune rejection in high risk cornea transplantation
From the text: Fifty-six high risk patients (56 eyes) who needed operation for cornea transplantation were randomly divided into a treatment group and a control group, each having […] patients. […] Average time for follow-up survey was 5½ months. The main criteria for clinical valuation include visual function, lasting time for transparency, new angiopoiesis, swelling, opaque degree of transplanted corneas after operation.
56 high risky patients (56 eyes) who need operation for cornea transplantation were chosen in this study with 32 eyes from male and 24 from female. The average age was 31 (19-66). Of which 27 eyes were carried for full cornea transplantation, 14 for full cornea transplantation with scleral ring, 10 eyes with angiopoiesis cornea were used for cornea transplantation, and 10 for multiple transplantations. Blindness was caused by pyogenic infection of eyes (30 eyes), severe chemical injury (18 eyes), and thermal burn (8 eyes).
The control medicine CsA was a product of Swiss Sandoz pharmaceuticals which was diluted to 1% eye drops with oleum ricini. Corticosteroid eye drops was also purchased commercially.
The above cases were randomly divided into treatment group and control group with each having 28 eyes. […] Medicines were given 3 days after surgery, continuing 3-9 months, follow-up survey was 5½ months.
Observation was done twice a week within 1-3 months after medication, then once a week after 3 months. The items for observation were vision and transplanted corneas (including three criteria: new angiopoiesis, swelling, opacity of transplanted corneas). The scores for each criterion are as follows: new angiopoiesis has grades 0-3, grade 0 indicates no new angiopoiesis (0 score), grade 1 a few new angiopoiesis focusing on transplanted corneas and starting penetration the edges of transplantation (1 score), grade 2 a few new angiopoiesis focusing on center of the transplanted corneas (2 scores), grade 3 a great numbers of new angiopoiesis fully covering the whole transplanted corneas (3 scores). The swelling contains grades 0-3, grade 0 means no swelling (0 score), grade 1 light swelling (1 score), grade 2 medium swelling (2 scores), grade 3 severe swelling (3 scores). […] Rejection index (RI) is a sum of the previous 3 criteria. When RI=5 scores it is considered rejection. The study would not cover the following conditions: epithelium had reaction of rejection, complication happened during operation, and swelling and dissolution of transplanted corneas occurred after operation due to a functional failure of implanted cornea endothelia, lesion fissure, secondary glaucoma, infection of transplantation.
All operations on patients in the study were done by professors in the Department of Corneal Diseases. Donor corneas were all freshly obtained from adults. Specific people were assigned for follow-up survey after surgery. t-test, u-test, and analysis of variance were carried out on the data using commercially available software.

[3] = system: immune-response related ocular surface diseases; experiment: Further clinical observations with topical tacrolimus in immune ocular diseases; format: in vivo, patients
immunosuppression = settings: in vitro; cited from earlier work
[4] = cited from earlier work

SMILES	effect on inflammation in early phase ([1]; superficial administration)	inhibition of new angiopoiesis after cornea transplantation ([1]; superficial administration)	final rate of rejection to the transplantation ([2]; 28 eyes per group, RI=5 counted as rejection, follow-up 5½ months)	maintenance time for transparency in transplanted corneas after surgery ([2]; 28 eyes per group, eye drops four times a day with TOBRA DEX)	eyes with final vision (=0.05 for FK-506, =0.5 for CsA as printed) ([2]; 28 eyes per group, with TOBRA DEX, follow-up 5½ months)	new angiopoiesis, swelling, opaqueness and RI values of cornea transplantation ([2]; during follow-up survey)	adverse reactions (twinges, itches, toxic reactions on cornea epithelia) ([2]; topical eye drops, patients)	conjunctive inflammation non-responsive to CsA treatment ([3]; 17 cases, topical administration)	recurrence of recurring erosive corneal ulcer ([3]; 26 cases, five months to two years, topical)	rejection reaction in cornea transplantation ([3]; 64 cases, most of them, topical)	effect on Type I and IV hypersensitive reactions ([3]; topical administration)	effect on Types II and III hypersensitive reactions (e.g. Steven Johnson Syndrome) ([3]; topical administration)	effect on re-construction of ocular surface and obstinate and immune corneal diseases ([3]; topical administration)	effect on immunosuppression relative to CsA (immunosuppression)	terminal elimination half-life ([4]; healthy volunteers)	absorption half-life ([4]; oral dose, measured in 16 patients)	terminal elimination half-life ([4]; transplant patients)	effect on immune rejection in allotypic cornea transplantation [1]	effect on immune rejection in allotypic cornea transplantation ([1]; listed as Tecolimus)	effect on swelling of transplanted corneas in early phase ([1]; superficial administration)
C[C@@H]1C[C@H]2[C@@H]3CCC4=CC(=O)C=C[C@]4(C)[C@@]3(F)[C@@H](O)C[C@]2(C)[C@@]1(O)C(=O)CO [corticosteroid, dexamethasone]	strong inhibition effect	strongest effect	–	–	–	–	–	–	–	–	–	–	–	–	–	–	–	–	–	–
C=CC[C@@H]1/C=C(\C)C[C@H](C)C[C@H](OC)[C@H]2O[C@@](O)(C(=O)C(=O)N3CCCC[C@H]3C(=O)O[C@H](/C(C)=C/[C@@H]3CC[C@@H](O)[C@H](OC)C3)[C@H](C)[C@@H](O)CC1=O)[C@H](C)C[C@@H]2OC.O [tacrolimus, Tacrolimus]	–	–	60.8%	70.4 ± 18.32 days	39.3%	much better than the CsA group	No patient showed adverse reactions	successfully controlled	only three cases had recurrence	significantly reduced rejection reaction	significant therapeutic effects	some, but not complete therapeutic effect	excellent clinical effects	10-100 folds	21.2 h	5.7 ± 4.6 h	11.7 ± 3.9 h	clear inhibition	clearly therapeutic effects	worse therapeutic effects
